Results on 27 compounds are retold here after patent US10617680B2 (CELGENE QUANTICEL RESEARCH, INC., priority 2017, dated 2020).

The structures appear in SMILES notation.

For one experiment, the target named is CBP (Homo sapiens (Human), UniProt Q92793). Description: In vitro CBP inhibition (AlphaScreen, biotinylated H4-tetraacetyl peptide). It counts as binding.
Sequence of CBP (Q92793 1081-1197): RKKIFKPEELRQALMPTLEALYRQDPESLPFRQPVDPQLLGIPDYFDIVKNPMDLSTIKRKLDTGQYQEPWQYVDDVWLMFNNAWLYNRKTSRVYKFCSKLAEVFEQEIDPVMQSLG
Conditions: not given
In short, it runs like this: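 His-tagged CBP expressed in E. coli (50 nM final) incubated with biotinylated H4K5/8/12/16(Ac) peptide (20 nM final) in 50 mM HEPES pH 7.3, 10 mM NaCl, 0.25 mM TCEP, 0.1% BSA, 0.005% Brij-35, 0.4% DMSO, 20 min at room temp.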
As for `Cn1cc(-c2cnn(CC3CC3)c2)c(-c2ccc(C#N)cc2)cc1=O` [Example 156, 4-[5-(1-cyclopropyl-methyl-1H-pyrazol-4-yl)-1-methyl-2-oxo-1,2-dihydro-pyridin-4-yl]-benzonitrile], the IC50 fell in the range of 500 to 5000 nM.

The experiment is the same for the next values; noted with them: AlphaScreen, Table 29; read-out: CBP IC50.
`CCOc1cc(=O)n(C)cc1-c1cn(Cc2ccccc2)nc1[N+](=O)[O-]` [Example 185, 5-(1-benzyl-3-nitro-1H-pyrazol-4-yl)-4-ethoxy-1-methylpyridin-2(1H)-one]: the IC50 was less than 500 nM. With `Cn1cc(-c2cc(=O)n(C)cc2-c2cnn(-c3ccccc3C#N)c2)ccc1=O` [Example 209, 2-[4-(1,1′-Dimethyl-6,6′-dioxo-1,6,1′,6′-tetrahydro-[3,4′]bipyridinyl-3′-yl)-pyrazol-1-yl]-benzonitrile], the IC50 is less than 500 nM. As for `CN(C)c1ccc(-c2cc(=O)n(C)cc2-c2cnn(-c3cccc(F)c3C#N)c2)cn1` [Example 347, 2-{4-[6-(dimethylamino)-1′-methyl-6′-oxo-1′,6′-dihydro-[3,4′-bipyridine]-3′-yl]-1H-pyrazol-1-yl}-6-fluorobenzonitrile], the IC50 is less than 500 nM. `CC(C)Oc1cc(=O)n(C)cc1-c1cnn(C(C)c2ccccc2)c1` (stereo not drawn) [Example 36, 4-isopropoxy-1-methyl-5-(1-(1-phenylethyl)-1H-pyrazol-4-yl)pyridin-2(1H)-one]: the IC50 was less than 500 nM. For `Cn1cc(-c2cnn(Cc3ccccc3)c2)c(-c2cn[nH]c2)cc1=O` [Example 152, 5-(1-benzyl-1H-pyrazol-4-yl)-1-methyl-4-(1H-pyrazol-4-yl) pyridin-2(1H)-one], the IC50 is less than 500 nM. Regarding `Cn1cc(-c2cnn(-c3cccc(Cl)c3C#N)c2)c(-c2ccc(C3CCCC3)nc2)cc1=O` [Example 379, 2-chloro-6-(4-(6-cyclopentyl-1′-methyl-6′-oxo-1′,6′-dihydro-[3,4′-bipyridin]-3′-yl)-1H-pyrazol-1-yl)benzonitrile], the IC50 was less than 500 nM. Consider `Cn1cc(-c2cnn(-c3ccccc3C#N)c2)c(C2CC2)cc1=O` [Example 207, 2-[4-(4-Cyclopropyl-1-methyl-6-oxo-1,6-dihydro-pyridin-3-yl)-pyrazol-1-yl]-benzonitrile], for which the IC50 is less than 500 nM.

`CN(C)CCCOc1ccc(-c2cc(=O)n(C)cc2-c2cnn(-c3ccccc3C#N)c2)cn1` [Example 355, 2-(4-(6-(3-(dimethylamino)propoxy)-1′-methyl-6′-oxo-1′,6′-dihydro-[3,4′-bipyridin]-3′-yl)-1H-pyrazol-1-yl)benzonitrile]: the IC50 was less than 500 nM. With `Cc1cc(-c2cnn(Cc3ccccc3)c2)cn(C)c1=O` [Example 13, 5-(1-benzyl-1H-pyrazol-4-yl)-1,3-dimethyl-pyridin-2(1H)-one], the IC50 is less than 500 nM. Regarding `COc1cncc(-c2cc(=O)n(C)cc2-c2cnn(-c3ccccc3C#N)c2)c1` [Example 242, 2-(4-(5-methoxy-1′-methyl-6′-oxo-1′,6′-dihydro-[3,4′-bipyridin]-3′-yl)-1H-pyrazol-1-yl)benzonitrile], the IC50 was less than 500 nM. Take `Cn1cc(-c2cc(=O)n(C)cc2-c2cnn(Cc3ccccc3)c2)cn1` [Example 108, 5-(1-benzyl-1H-pyrazol-4-yl)-1-methyl-4-(1-methyl-1H-pyrazol-4-yl)pyridin-2(1H)-one]: the IC50 is less than 500 nM. Consider `Cn1cc(-c2cnn(Cc3ccccc3)c2)c(-c2ccc(C(N)=O)cc2)cc1=O` [Example 151, 4-(5-(1-benzyl-1H-pyrazol-4-yl)-1-methyl-2-oxo-1,2-dihydro-pyridin-4-yl)benzamide], for which the IC50 was less than 500 nM. Consider `CC(c1ccccc1)n1cc(-c2cc(N(C)C)c(=O)n(C)c2)cn1` (stereo not drawn) [Example 196, 3-Dimethylamino-1-methyl-5-[1-(1-phenyl-ethyl)-1H-pyrazol-4-yl]-1H-pyridin-2-one], for which the IC50 was 500 to 5000 nM. `CCOc1cc(=O)n(C)cc1-c1cnn(-c2cccc(Cl)c2C#N)c1` [Example 178, 2-Chloro-6-[4-(4-ethoxy-1-methyl-6-oxo-1,6-dihydro-pyridin-3-yl)-pyrazol-1-yl]-benzonitrile]: the IC50 was less than 500 nM. Take `Cn1cc(-c2cnn(-c3cccc(F)c3C#N)c2)c(-c2ccc(OC3CC3)nc2)cc1=O` [Example 362, 2-[4-[4-[6-(cyclopropoxy)-3-pyridyl]-1-methyl-6-oxo-3-pyridyl)pyrazol-1-yl]-6-fluoro-benzonitrile]: the IC50 was less than 500 nM. In the case of `Cn1ccc(-c2cc(=O)n(C)cc2-c2cnn(-c3ccccc3Cl)c2)cc1=O` [Example 314, 5-(1-(2-chlorophenyl)-1H-pyrazol-4-yl)-1,1′-dimethyl-[4,4′-bipyridine]-2,2′(1H,1′H)-dione], the IC50 is less than 500 nM.

As for `Cn1cc(-c2cnn(-c3cccc(Cl)c3C#N)c2)c(-c2cnc(N3CCCCC3)nc2)cc1=O` [Example 338, 2-chloro-6-(4-(1-methyl-6-oxo-4-(2-(piperidin-1-yl)pyrimidin-5-yl)-1,6-dihydropyridin-3-yl)-1H-pyrazol-1-yl)benzonitrile], the IC50 was less than 500 nM. Consider `CC(c1ccccc1)n1cc(-c2cn(C)c(=O)cc2OC2CCC2)cn1` (stereo not drawn) [Example 49, 4-cyclobutoxy-1-methyl-5-(1-(1-phenylethyl)-1H-pyrazol-4-yl) pyridin-2(1H)-one], for which the IC50 is less than 500 nM.

Turning to `CN1CCN(c2ncc(-c3cc(=O)n(C)cc3-c3cnn(-c4cccc(Cl)c4C#N)c3)cn2)CC1` [Example 337, 2-chloro-6-(4-(1-methyl-4-(2-(4-methylpiperazin-1-yl)pyrimidin-5-yl)-6-oxo-1,6-dihydropyridin-3-yl)-1H-pyrazol-1-yl)benzonitrile], the IC50 was less than 500 nM. `Cn1cc(-c2cnn(Cc3ccccc3)c2)c(OCCC(=O)O)cc1=O` [Example 166, 3-[5-(1-Benzyl-1H-pyrazol-4-yl)-1-methyl-2-oxo-1,2-dihydro-pyridin-4-yloxy]-propionic acid]: the IC50 was less than 500 nM. Regarding `CCn1cc(-c2cn(C)c(=O)cc2-c2ccccc2)cn1` [Example 132, 5-(1-ethyl-1H-pyrazol-4-yl)-1-methyl-4-phenylpyridin-2(1H)-one], the IC50 was less than 500 nM. Same read-out and setting: to `CCOc1cc(=O)n(C)cc1-c1cn[nH]c1` [Example 69, 4-ethoxy-1-methyl-5-(1H-pyrazol-4-yl)pyridin-2(1H)-one] belongs less than 500 nM; to `Cn1cc(-c2cnn(-c3ccccc3C#N)c2)c(OCCN2CCOCC2)cc1=O` [Example 283, 2-(4-(1-methyl-4-(2-morpholinoethoxy)-6-oxo-1,6-dihydropyridin-3-yl)-1H-pyrazol-1-yl)benzonitrile], less than 500 nM. For `Cn1cc(-c2cnn(Cc3ccccc3)c2)c(N2CCOCC2)cc1=O` [Example 67, 5-(1-benzyl-1H-pyrazol-4-yl)-1-methyl-4-morpholino-pyridin-2(1H)-one], the IC50 was less than 500 nM. For `CN(C)S(=O)(=O)NC(=O)c1ccccc1-n1cc(-c2cn(C)c(=O)cc2C2CC2)cn1` [Example 304, N-[(dimethylamino)sulfonyl]-{2-[4-(4-cyclopropyl-1-methyl-6-oxo(3-hydropyridyl))pyrazolyl]phenyl}carboxamide], the IC50 is less than 500 nM. In the case of `Cc1nn(C)cc1-c1cn(C)c(=O)cc1-c1ccccc1` [Example 136, 5-(1,3-dimethyl-1H-pyrazol-4-yl)-1-methyl-4-phenylpyridin-2(1H)-one], the IC50 was less than 500 nM.

Usually IC50 stands for the midpoint of a concentration-inhibition curve.
